Columns and labels:
Assay type in all cases: cell-based
HOP-92 = assay: NCIDTP 60 cancer cell lines screening, Non-Small Cell Lung Cancer panel
NCI-H322M = assay: as above
HCT-15 = assay: NCIDTP 60 cancer cell lines screening, Colon Cancer panel
KM12 = assay: as above
SW-620 = assay: as above
SF-539 = assay: NCIDTP 60 cancer cell lines screening, CNS Cancer panel
SNB-19 = assay: as above
U251 = assay: as above
LOX IMVI = assay: NCIDTP 60 cancer cell lines screening, Melanoma panel

Cc1ccc(C)c(COc2cc(NC(=O)c3ccc4c(c3)OCO4)ccc2N(C)S(C)(=O)=O)c1 [Compound #10, Benzo[1,3]dioxole-5-carboxylic acid [3-(2,5-dimethyl-benzyloxy)-4-(methanesulfonyl-methyl-amino)-phenyl]-amide]
TGI (HOP-92; HOP-92): >1.00E−4 Molar | Percent Growth (HOP-92; HOP-92, Log10 Concentration −4.0 Molar): 37% | Percent Growth (HOP-92; HOP-92, Log10 Concentration −5.0 Molar): 39% | Percent Growth (HOP-92; HOP-92, Log10 Concentration −6.0 Molar): 62% | Percent Growth (HOP-92; HOP-92, Log10 Concentration −7.0 Molar): 62% | Percent Growth (HOP-92; HOP-92, Log10 Concentration −8.0 Molar): 78% | GI50 (HOP-92; Homo sapiens, HOP-92): 0.0322 µM | CC50 (HOP-92; Homo sapiens, HOP-92, read-out: LC50): > 100 µM | TGI (NCI-H322M): >1.00E−4 Molar | GI50 (NCI-H322M; Homo sapiens): 0.468 µM | CC50 (NCI-H322M; Homo sapiens, read-out: LC50): > 100 µM | Percent Growth (NCI-H322M; Log10 Concentration −4.0 Molar): 28% | Percent Growth (NCI-H322M; Log10 Concentration −5.0 Molar): 26% | Percent Growth (NCI-H322M; Log10 Concentration −6.0 Molar): 30% | Percent Growth (NCI-H322M; Log10 Concentration −7.0 Molar): 91% | Percent Growth (NCI-H322M; Log10 Concentration −8.0 Molar): 94% | TGI (HCT-15; HCT-15): >1.00E−4 Molar | Percent Growth (HCT-15; HCT-15, Log10 Concentration −4.0 Molar): 17% | Percent Growth (HCT-15; HCT-15, Log10 Concentration −5.0 Molar): 17% | Percent Growth (HCT-15; HCT-15, Log10 Concentration −6.0 Molar): 22% | Percent Growth (HCT-15; HCT-15, Log10 Concentration −7.0 Molar): 74% | Percent Growth (HCT-15; HCT-15, Log10 Concentration −8.0 Molar): 96% | GI50 (HCT-15; Homo sapiens, HCT-15): 0.289 µM | CC50 (HCT-15; Homo sapiens, HCT-15, read-out: LC50): > 100 µM | GI50 (KM12; Homo sapiens, KM12): 0.0855 µM | CC50 (KM12; Homo sapiens, KM12, read-out: LC50): > 100 µM | TGI (KM12; KM12): 1.13E−6 Molar | Percent Growth (KM12; KM12, Log10 Concentration −4.0 Molar): −29% | Percent Growth (KM12; KM12, Log10 Concentration −5.0 Molar): −19% | Percent Growth (KM12; KM12, Log10 Concentration −6.0 Molar): 1% | Percent Growth (KM12; KM12, Log10 Concentration −7.0 Molar): 47% | Percent Growth (KM12; KM12, Log10 Concentration −8.0 Molar): 93% | GI50 (SW-620; Homo sapiens, SW-620): 0.112 µM | CC50 (SW-620; Homo sapiens, SW-620, read-out: LC50): > 100 µM | TGI (SW-620; SW-620): >1.00E−4 Molar | Percent Growth (SW-620; SW-620, Log10 Concentration −4.0 Molar): 16% | Percent Growth (SW-620; SW-620, Log10 Concentration −5.0 Molar): 21% | Percent Growth (SW-620; SW-620, Log10 Concentration −6.0 Molar): 19% | Percent Growth (SW-620; SW-620, Log10 Concentration −7.0 Molar): 52% | Percent Growth (SW-620; SW-620, Log10 Concentration −8.0 Molar): 92% | GI50 (SF-539; Homo sapiens, SF-539): 0.125 µM | CC50 (SF-539; Homo sapiens, SF-539, read-out: LC50): > 100 µM | Percent Growth (SF-539; SF-539, Log10 Concentration −5.0 Molar): −10% | Percent Growth (SF-539; SF-539, Log10 Concentration −6.0 Molar): −10% | Percent Growth (SF-539; SF-539, Log10 Concentration −7.0 Molar): 56% | Percent Growth (SF-539; SF-539, Log10 Concentration −8.0 Molar): 91% | GI50 (SNB-19; Homo sapiens, SNB-19): 0.537 µM | CC50 (SNB-19; Homo sapiens, SNB-19, read-out: LC50): > 100 µM | TGI (SNB-19; SNB-19): >1.00E−4 Molar | Percent Growth (SNB-19; SNB-19, Log10 Concentration −4.0 Molar): 39% | Percent Growth (SNB-19; SNB-19, Log10 Concentration −5.0 Molar): 30% | Percent Growth (SNB-19; SNB-19, Log10 Concentration −6.0 Molar): 36% | Percent Growth (SNB-19; SNB-19, Log10 Concentration −7.0 Molar): 89% | Percent Growth (SNB-19; SNB-19, Log10 Concentration −8.0 Molar): 93% | CC50 (U251; Homo sapiens, U-251, read-out: LC50): > 100 µM | GI50 (U251; Homo sapiens, U-251, U251): 0.266 µM | TGI (U251; U251): 2.19E−5 Molar | Percent Growth (U251; U251, Log10 Concentration −4.0 Molar): −16% | Percent Growth (U251; U251, Log10 Concentration −5.0 Molar): 8% | Percent Growth (U251; U251, Log10 Concentration −6.0 Molar): 15% | Percent Growth (U251; U251, Log10 Concentration −7.0 Molar): 76% | Percent Growth (U251; U251, Log10 Concentration −8.0 Molar): 97% | TGI (LOX IMVI): >1.00E−4 Molar | GI50 (LOX IMVI; Homo sapiens): 0.0666 µM | CC50 (LOX IMVI; Homo sapiens, read-out: LC50): > 100 µM | Percent Growth (LOX IMVI; Log10 Concentration −4.0 Molar): 26%
